Results: the supplement of paper PMC10307832

What was measured:
Experiment in all cases: relative viability (nuclei count vs DMSO), 5 days (fraction); higher = more cells survive
Neratinib + Palbociclib = compound: CCOc1cc2ncc(C#N)c(Nc3ccc(OCc4ccccn4)c(Cl)c3)c2cc1NC(=O)/C=C/CN(C)C [Neratinib] + CC(=O)c1c(C)c2cnc(Nc3ccc(N4CCNCC4)cn3)nc2n(C2CCCC2)c1=O [Palbociclib] (partner 0.5 µM)
Summary of the method: (§1)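 For relative viability, nuclei counts in treated wells were divided by those in vehicle wells. Lung cancer cell lines had been pin-tool dosed in 1536-well plates the day after seeding and cultured for 5 days, then fixed and stained in one step (final 0.05% Triton X-100, 1% formaldehyde, 1 ug/ml Hoechst) and imaged at 4×. Doses were one drug alone or a fixed anchor-drug dose plus five library-drug doses (not always all listed) in √10 steps, and values are duplicate-plate medians.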

Neratinib + Bortezomib = compound: CCOc1cc2ncc(C#N)c(Nc3ccc(OCc4ccccn4)c(Cl)c3)c2cc1NC(=O)/C=C/CN(C)C [Neratinib] + CC(C)C[C@H](NC(=O)[C@H](Cc1ccccc1)NC(=O)c1cnccn1)B(O)O [Bortezomib] (partner 0.002 µM)
Summary of the method: as §1

Neratinib + Alpelisib = compound: CCOc1cc2ncc(C#N)c(Nc3ccc(OCc4ccccn4)c(Cl)c3)c2cc1NC(=O)/C=C/CN(C)C [Neratinib] + Cc1nc(NC(=O)N2CCC[C@H]2C(N)=O)sc1-c1ccnc(C(C)(C)C(F)(F)F)c1 [Alpelisib] (partner 2 µM)
Summary of the method: as §1

Neratinib + Dasatinib = compound: CCOc1cc2ncc(C#N)c(Nc3ccc(OCc4ccccn4)c(Cl)c3)c2cc1NC(=O)/C=C/CN(C)C [Neratinib] + Cc1nc(Nc2ncc(C(=O)Nc3c(C)cccc3Cl)s2)cc(N2CCN(CCO)CC2)n1 [Dasatinib] (partner 0.075 µM)
Summary of the method: as §1

Cell Line	relative viability (Neratinib + Palbociclib; first compound 0.01 µM)	relative viability (Neratinib + Palbociclib; first compound 0.03162 µM)	relative viability (Neratinib + Palbociclib; first compound 0.1 µM)	relative viability (Neratinib + Palbociclib; first compound 0.3162 µM)	relative viability (Neratinib + Palbociclib; first compound 1 µM)	relative viability (Neratinib + Bortezomib; first compound 0.01 µM)	relative viability (Neratinib + Bortezomib; first compound 0.03162 µM)	relative viability (Neratinib + Bortezomib; first compound 0.1 µM)	relative viability (Neratinib + Bortezomib; first compound 0.3162 µM)	relative viability (Neratinib + Bortezomib; first compound 1 µM)	relative viability (Neratinib + Alpelisib; first compound 0.01 µM)	relative viability (Neratinib + Alpelisib; first compound 0.03162 µM)	relative viability (Neratinib + Alpelisib; first compound 0.1 µM)	relative viability (Neratinib + Alpelisib; first compound 0.3162 µM)	relative viability (Neratinib + Alpelisib; first compound 1 µM)	relative viability (Neratinib + Dasatinib; first compound 0.01 µM)	relative viability (Neratinib + Dasatinib; first compound 0.03162 µM)	relative viability (Neratinib + Dasatinib; first compound 0.1 µM)	relative viability (Neratinib + Dasatinib; first compound 0.3162 µM)	relative viability (Neratinib + Dasatinib; first compound 1 µM)
LU99A	0.377	0.434	0.356	0.385	0.329	1.11	1.18	0.762	0.927	0.413	0.66	0.625	0.483	0.323	0.259	0.636	0.352	0.551	0.51	0.278
NCI-H1355	0.38	0.41	0.348	0.302	0.274	1.23	1.3	1.16	1.02	0.752	0.949	0.83	0.788	0.698	0.236	0.754	0.745	0.629	0.584	0.39
NCI-H650	0.372	0.306	0.293	0.294	0.371	0.94	1.07	1.08	–	0.852	1.13	1.32	0.999	–	0.85	0.489	0.493	0.477	0.416	0.463
PC-14	0.625	0.672	0.474	0.0909	0.0675	0.88	0.86	0.741	0.918	0.158	1.04	0.978	0.83	0.732	0.208	0.22	0.265	0.195	0.0282	0.0541
NCI-H838	0.223	0.23	0.216	0.176	0.176	0.921	1.12	0.729	0.627	0.328	1.05	1.16	0.94	0.832	0.344	0.272	0.255	0.278	0.287	0.267
NCI-H727	0.616	0.69	–	0.639	0.538	0.961	0.914	–	0.893	0.536	0.525	0.542	–	0.441	0.276	0.36	0.359	0.335	0.333	0.225
201T	0.361	0.351	0.343	0.321	0.335	1.08	1.1	1.06	1.12	1.09	1.06	0.945	0.926	1.01	0.9	0.629	0.539	–	0.49	0.6
RERF-LC-KJ	1.16	1.16	1.08	0.84	0.467	1.19	1.07	0.87	0.878	0.596	0.842	0.841	0.709	0.577	0.394	0.941	0.822	0.681	0.653	0.335
NCI-H596	–	–	–	–	–	–	1.32	1.12	1.08	0.843	0.464	0.474	0.433	0.489	0.304	–	0.659	0.749	0.5	0.436
